Data published in ChEMBL document CHEMBL1136425, “A novel metal-chelating inhibitor of protein farnesyltransferase” (Bioorg Med Chem Lett, 2003).
Values after ≈ are worked out from the molar mass of the structure shown.

System: not listed separately
Experiment: Inhibitory activity against K-rasNRK cells
Type: functional, cell-based, Rattus norvegicus

| Compound | IC50 [µg/mL] |
| --- | --- |
| SCCNCc1cc(-c2cccc3ccccc23)cc(CNCCS)n1 | 0.32 (≈ 0.834 µM) |

Target: Protein farnesyltransferase (Homo sapiens, UniProt P49354+P49356)
Experiment: Inhibition of [3H]farnesyl pyrophosphate binding to human farnesyltransferase
Type: protein-complex assay

| Compound | IC50 [mM] |
| --- | --- |
| c1cnc2c(c1)ccc1cccnc12 [PHENANTHROLINE] | 4 |
| CCCC[C@@H](C)/C=C(C)/C=C(\C)C(=O)NC1=C[C@@](O)(/C=C/C=C/C=C/C(=O)NC2=C(O)CCC2=O)[C@@H]2O[C@@H]2C1=O [MANUMYCIN A] | 0.0119 |
| CN(C)c1cc(CNCCS)nc(CNCCS)c1 | 0.62 |
| NCCN [ETHYLENEDIAMINE] | 15.5 |
| c1ccc(-c2ccccn2)nc1 | 100 |
